Reference: patent publication US11045441B2, “Use of retinoic acid and analogs thereof to treat central neural apneas” (Wisconsin Alumni Research Foundation, priority 2015, dated 2021)

Tests used:
Assay type in all cases: in vivo
phrenic nerve activity = assay: Protocol 1: intrathecal retinoic acid injections, phrenic nerve recording in anesthetized rats; conditions: three 10 μL intrathecal injections, 50 μM each, 60 min after final injection, vs vehicle control, FIGS. 1A, 1B
Experimental: Respiratory-related activity was recorded from the left phrenic and hypoglossal nerves in urethane-anesthetized (1.7 g/kg), vagotomized, paralyzed and mechanically ventilated rats (see Strey et al., 2012 for details). Rats are slightly hyperventilated, so a small amount of inspired CO2 was delivered to achieve target, normal PCO2. A pre-study apneic threshold test was performed. The apneic threshold was determined by lowering arterial PCO2 until phrenic respiratory activity ceased. […] Following 15 min of stable phrenic and hypoglossal burst discharge, baseline phrenic and hypoglossal burst amplitudes and blood gases were measured. Rats were then subjected to one of the following protocols: Protocol 1) Three (3) 10 μL intrathecal injections (50 μM each) of retinoic acid or three (3) 10 μL of vehicle (aCSF in 10% DMSO). […] Protocol 1 tests the hypothesis that retinoic acid is sufficient to elicit inactivity-induced respiratory motor facilitation. […] Phrenic burst amplitude was recorded for up to 60 min following treatment, and an apneic threshold test was performed at the end of the protocol.

[1] = system: apnea and hypopnea events; assay: Chronic intermittent hypoxia (CIH) model, diaphragm EMG recording of apneic and hypoapneic events; conditions: rats; intraperitoneal 500 mcg/kg daily during 7 day CIH plus day 8 dose; FIG. 5
From the text: Briefly, the experimental and control animals were placed in adjoining, identical chambers that were maintained at room temperature and were large enough to allow unimpeded movement. The fraction of inspired oxygen in each chamber was regulated by microprocessor-controlled miniature solenoids attached to each chamber by high-pressure tubing. For the CIH protocol, the chamber was flushed with 100% nitrogen for 30 sec followed by 30 sec of 100% O2 at a low flow rate. The time course of change in the fraction of inspired oxygen for the experimental chamber was determined using an oxygen analyzer (Sensormedics, Milan, Italy): a decline to a nadir of 6.5 to 7% oxygen, remaining at that level for 5 to 7 sec, and then gradually increasing to 21% over the next 30 sec during which oxygen flowed into the chamber. This cycle was repeated each minute over 8 daytime hours (8 to 9 am to 4 to 5 pm) for 7 days. Control rats were exposed to the same sequence of events as experimental rats, with the exception that room air was used instead of nitrogen and oxygen. […] The experimental animals were administered intra peritoneal trans-retinoic acid (500 mcg/kg) daily throughout the 7 day CIH exposure with an additional dose given the morning of diaphragm electromyography (EMG) recordings (day 8; total of 8 injections) […] and hypoapneic events were recorded via conventional diaphragm EMG measurements.

[2] = system: phrenic and hypoglossal nerve activity; assay: Protocol 2: central neural apnea model with concurrent hypoxia, rats pretreated with retinoic acid
Experimental: Respiratory-related activity was recorded from the left phrenic and hypoglossal nerves in urethane-anesthetized (1.7 g/kg), vagotomized, paralyzed and mechanically ventilated rats (see Strey et al., 2012 for details). Rats are slightly hyperventilated, so a small amount of inspired CO2 was delivered to achieve target, normal PCO2. A pre-study apneic threshold test was performed. The apneic threshold was determined by lowering arterial PCO2 until phrenic respiratory activity ceased. […] Following 15 min of stable phrenic and hypoglossal burst discharge, baseline phrenic and hypoglossal burst amplitudes and blood gases were measured. Rats were then subjected to one of the following protocols:
Protocol 2) Five (5) brief central neural apneas followed by a 25 sec ventilator apnea (nadir O2 saturation ˜70%) in rats pretreated with vehicle (“control”) or retinoic acid (see below for details). The results are depicted in FIGS. 2A, 2B, and 3.
Protocol 1 tests the hypothesis that retinoic acid is sufficient to elicit inactivity-induced respiratory motor facilitation. Protocol 2 tests the hypothesis that retinoic acid administration can circumvent hypoxia-induced constraints on inactivity-induced respiratory motor facilitation. Phrenic burst amplitude was recorded for up to 60 min following treatment, and an apneic threshold test was performed at the end of the protocol.
To model a central neural apnea in anesthetized rats, inflow of CO2 was ceased by stopcock valve to reduce arterial PCO2 below the apneic threshold. Following a 10 second period of no phrenic firing activity (signaling absent breaths) the ventilator was turned off for 25 seconds to model the hypoxia that would normally be experienced in a human. At the end of 25 seconds, the ventilator was turned back on and PaCO2 was restored. This experience was repeated five times, with five minutes separating each episode.

SMILES: CC1=C(/C=C/C(C)=C/C=C/C(C)=C/C(=O)O)C(C)(C)CCC1 [retinoic acid, all-trans retinoic acid]
- phrenic nerve activity (phrenic motor output) as a percentage of baseline activity (phrenic nerve activity): persistently increases phrenic motor output
- phrenic nerve activity (phrenic motor output) as a percentage of baseline activity (phrenic nerve activity; listed as trans-retinoic acid): significantly higher than control group
- number of apnea and hypopnea events (diaphragm EMG) [1]: reduces the number of apnea and hypopnea events
- CO2 apneic threshold ([2]; anesthetized rats, given before central neural apnea, 60 min post injection, vs control, FIG. 3): reduced the CO2 apneic threshold relative to a control groups
- phrenic burst amplitude ([2]; anesthetized rats, intrathecal 10 μL, 50 μM before central neural apneas with hypoxia, 60 min after, FIG. 2A): significantly higher than pre-stimulation levels
- hypoglossal burst amplitude ([2]; anesthetized rats, intrathecal 10 μL, 50 μM before central neural apneas with hypoxia, 60 min after, FIG. 2B): significantly higher than pre-stimulation levels
- enhanced phrenic motor output following inactivity with concurrent hypoxia ([2]; pretreatment, intermittent inactivity with concurrent hypoxia, FIG. 4C): rescues then enhanced phrenic motor output
